Measured values taken from patent publication US20240109853A1 (Shanghai Yao Yuan Biotechnology Co., Ltd., priority 2020, published 2024).

Target: ALPK1 (Homo sapiens (Human), UniProt Q96QP1)
Assay: ALPK1 in vitro kinase assay (HTRF of TIFA phosphorylation)
Assay type: biochemical
Details: not given

Sequence of ALPK1 (Q96QP1 whole entry): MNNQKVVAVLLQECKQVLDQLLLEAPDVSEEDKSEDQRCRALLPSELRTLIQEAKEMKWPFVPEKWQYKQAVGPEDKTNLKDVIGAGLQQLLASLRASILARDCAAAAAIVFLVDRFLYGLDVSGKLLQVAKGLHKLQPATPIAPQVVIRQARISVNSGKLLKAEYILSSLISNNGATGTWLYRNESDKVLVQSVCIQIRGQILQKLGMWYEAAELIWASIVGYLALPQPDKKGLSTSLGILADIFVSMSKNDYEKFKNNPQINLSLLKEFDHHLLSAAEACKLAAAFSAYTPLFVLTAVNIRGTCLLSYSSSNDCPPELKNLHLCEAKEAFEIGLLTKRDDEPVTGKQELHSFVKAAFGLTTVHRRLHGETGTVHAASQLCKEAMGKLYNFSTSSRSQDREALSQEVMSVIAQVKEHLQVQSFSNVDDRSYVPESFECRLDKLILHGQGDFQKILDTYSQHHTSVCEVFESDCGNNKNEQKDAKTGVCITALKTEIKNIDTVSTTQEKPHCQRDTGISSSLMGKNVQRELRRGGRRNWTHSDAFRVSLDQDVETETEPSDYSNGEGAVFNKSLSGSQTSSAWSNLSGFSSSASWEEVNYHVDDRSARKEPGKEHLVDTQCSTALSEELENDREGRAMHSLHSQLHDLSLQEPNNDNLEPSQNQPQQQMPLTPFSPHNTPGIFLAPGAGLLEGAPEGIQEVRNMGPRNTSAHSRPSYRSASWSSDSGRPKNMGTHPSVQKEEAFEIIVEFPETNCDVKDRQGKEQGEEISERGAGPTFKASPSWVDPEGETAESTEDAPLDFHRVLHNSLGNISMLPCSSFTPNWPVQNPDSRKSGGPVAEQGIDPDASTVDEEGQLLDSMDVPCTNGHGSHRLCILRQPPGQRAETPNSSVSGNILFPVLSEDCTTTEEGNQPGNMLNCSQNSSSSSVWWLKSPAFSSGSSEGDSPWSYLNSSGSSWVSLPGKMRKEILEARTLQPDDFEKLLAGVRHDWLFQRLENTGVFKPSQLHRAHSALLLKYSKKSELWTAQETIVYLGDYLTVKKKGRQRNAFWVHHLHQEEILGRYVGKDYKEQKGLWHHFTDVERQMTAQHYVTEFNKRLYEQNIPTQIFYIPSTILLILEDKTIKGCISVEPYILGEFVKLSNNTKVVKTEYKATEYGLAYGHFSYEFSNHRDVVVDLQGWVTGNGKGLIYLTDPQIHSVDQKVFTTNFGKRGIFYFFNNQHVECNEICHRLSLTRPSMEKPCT

Going from `CC(C)(c1ccc(Br)cc1)c1csc(NC(=O)NCc2ccc(N3CCC(C(N)=O)CC3)cc2)n1` [Example A006, 1-(4-((3-(4-(2-(4-bromophenyl)propan-2-yl)thiazol-2-yl)ureido)methyl)phenyl) piperidine-4-carboxamide] to `CC(C)(c1ccc(Br)cc1)c1csc(NC(=O)NCc2ccc(N3CCCNCC3)c(F)c2)n1` [Example A197, 1-(4-(1,4-diazepan-1-yl)-3-fluorobenzyl)-3-(4-(2-(4-bromophenyl)propan-2-yl)thiazol-2-yl)urea], the IC50 falls from 0.104 µM to 0.067 µM (1.6-fold).

`COc1ccc(CNC(=O)Nc2nc(C(C)(C)c3ccc(Br)cc3)cs2)cc1F` [Example A107, 1-(4-(2-(4-bromophenyl)propan-2-yl)thiazol-2-yl)-3-(3-fluoro-4-methoxybenzyl)urea] and `COc1ccc(C(C)(C)c2csc(NC(=O)NCc3cccc(N4CCNCC4)n3)n2)cc1` [Example A043, 1-(4-(2-(4-methoxyphenyl)propan-2-yl)thiazol-2-yl)-3-((6-(piperazin-1-yl)pyridin-2-yl)methyl)urea] are within 1.5-fold of each other in IC50: 0.216 µM for the first, 0.165 µM for the second.

`O=C(NCc1cnc(N2CCNCC2)nc1)Nc1nc(C2(c3ccc(Br)cc3)CCCC2)cs1` [Example A180, 1-(4-(1-(4-bromophenyl)cyclopent-yl)thiazol-2-yl)-3-((2-(piperazin-1-yl)pyrimidin-5-yl)methyl)urea] and `COc1ccc(C(C)(C)c2csc(NC(=O)NCCCCN)c2)cc1` [Example A188, 1-(4-aminobutyl)-3-(4-(2-(4-methoxyphenyl)propan-2-yl)thiophen-2-yl)urea] are within 1.5-fold of each other in IC50: 0.045 µM for the first, 0.059 µM for the second.

For `C#CC(C)(c1ccc(Cl)cc1)c1csc(NC(=O)N(C)CCO)n1` (centres unmarked) [Example A266, 3-(4-(2-(4-chlorophenyl)but-3-yn-2-yl)thiazol-2-yl)-1-(2-hydroxyethyl)-1-methylurea], the IC50 was 0.546 µM.

Same assay, conditions: ALPK1 2 nM, TIFA substrate, ADP-Heptose activator, HTRF readout

Compared with `CC(C)(c1ccc(Br)cc1)c1csc(NC(=O)NCc2cc(F)c(N3CCNCC3)c(F)c2)n1` [Example B037, 1-(4-(2-(4-bromophenyl)propan-2-yl)thiazol-2-yl)-3-(3,5-difluoro-4-(piperazin-1-yl)benzyl)urea], `COc1ccc(C(C)(C)c2csc(NC(=O)c3ccc(CN4CCNCC4)cc3F)n2)cc1` [Example B013, 2-fluoro-N-(4-(2-(4-methoxyphenyl)propan-2-yl)thiazol-2-yl)-4-(piperazin-1-ylmethyl)benzamide] is 4.8-fold higher in IC50: 0.023 µM for the first, 0.111 µM for the second. The first is the more potent here.

Compared with `CN1CCN(c2cc(F)c(C(=O)Nc3nc(C4(c5ccc(Br)cc5)CCCC4)cs3)c(F)c2)CC1` [Example C015, N-(4-(1-(4-bromophenyl)cyclopentyl)thiazol-2-yl)-2,6-difluoro-4-(4-methylpiperazin-1-yl)benzamide], `C#C[C@](C)(c1ccc(Cl)cc1)c1csc(NC(=O)c2c(F)cc(N3CCN(C)CC3)cc2F)n1` [Example C010, (R)-N-(4-(2-(4-chlorophenyl)but-3-yn-2-yl)thiazol-2-yl)-2,6-difluoro-4-(4-methylpiperazin-1-yl)benzamide] is 4.8-fold lower in IC50: 0.266 µM for the first, 0.056 µM for the second. The second is the more potent here.

Compared with `Cc1ccc(C(C)(C)c2csc(NC(=O)c3ccc(N4CCNCC4)cc3)n2)cc1` [Example B031, 4-(piperazin-1-yl)-N-(4-(2-(p-tolyl)propan-2-yl)thiazol-2-yl)benzamide], `COc1ccc(C(C)(C)c2csc(NC(=O)c3ccc(CN4CCNCC4)cc3)n2)cc1` [Example B040, N-(4-(2-(4-methoxyphenyl)propan-2-yl)thiazol-2-yl)-4-(piperazin-1-ylmethyl)benzamide] is 2.5-fold higher in IC50: 0.037 µM for the first, 0.093 µM for the second.

First: COc1ccc(C(C)(C)c2csc(NC(=O)c3ccc(NCCO)cc3)n2)cc1 [Example B032, 4-((2-hydroxyethyl)amino)-N-(4-(2-(4-methoxyphenyl)propan-2-yl)thiazol-2-yl)benzamide]
Second: COc1ccc(C(C)(C)c2csc(NC(=O)c3ccc(OCCN(C)C)cc3)n2)cc1 [Example B021, 4-(2-(dimethylamino)ethoxy)-N-(4-(2-(4-methoxyphenyl)propan-2-yl)thiazol-2-yl)benzamide]
The IC50 of the first is 3.4-fold higher: 0.28 µM for the first, 0.083 µM for the second.

First: C#CC(C)(c1ccc(Cl)cc1)c1csc(NC(=O)c2ccc(N3CCNCC3)cc2F)n1 (centres unmarked) [Example B065, N-(4-(2-(4-chlorophenyl)but-3-yn-2-yl)thiazol-2-yl)-2-fluoro-4-(piperazin-1-yl)benzamide]
Second: C#CC(C)(c1ccc(F)cc1)c1csc(NC(=O)c2ccc(N3CCNCC3)c(C(N)=O)c2)n1 (centres unmarked) [Example B081, N1-(4-(2-(4-fluorophenyl)but-3-yn-2-yl)thiazol-2-yl)-4-(piperazin-1-yl)isophthalamide]
The IC50 of the first is 2.1-fold higher: 0.215 µM for the first, 0.102 µM for the second. The second is the more potent here.

Compared with `C#CC(C)(c1ccc(Cl)cc1)c1csc(NC(=O)c2c(F)cc(N3CCNCC3CC)cc2F)n1` (centres unmarked) [Example B101, N-(4-(2-(4-chlorophenyl)but-3-yn-2-yl)thiazol-2-yl)-4-(2-ethylpiperazin-1-yl)-2,6-difluorobenzamide], `C#C[C@](C)(c1ccc(Cl)cc1)c1csc(NC(=O)c2c(F)cc(N3CCC(N)C3)cc2F)n1` (some centres unmarked) [Example B086] is 4.1-fold higher in IC50: 0.07 µM for the first, 0.286 µM for the second. The first is the more potent here.

Going from `C#C[C@](C)(c1ccc(Cl)cc1)c1nc(NC(=O)c2c(F)cc(N3CCNCC3)cc2F)sc1Cl` (stereo in doubt) [Example C049, N-(5-chloro-4-(2-(4-chlorophenyl)but-3-yn-2-yl)thiazol-2-yl)-2,6-difluoro-4-(piperazin-1-yl)benzamide] to `C#CC(C)(c1ccc(Cl)cc1)c1coc(NC(=O)c2c(F)cc(N3CCNCC3)cc2F)n1` (centres unmarked) [Example C051, N-(4-(2-(4-chlorophenyl)but-3-yn-2-yl)oxazol-2-yl)-2,6-difluoro-4-(piperazin-1-yl)benzamide], the IC50 falls from 4.52 µM to 0.026 µM (170-fold).

`C#C[C@](C)(c1ccc(Cl)cc1)c1csc(NC(=O)c2ccc(N3CCNC(CO)C3)cc2)n1` (some centres unmarked) [Example B078, N-(4-(2-(4-chlorophenyl)but-3-yn-2-yl)thiazol-2-y1)-4-(3-(hydroxymethyl)piperazin-1-yl)benzamide] and `C#CC(C)(c1ccc(Cl)cc1)c1csc(NC(=O)c2ccc(N3CCNCC3)cc2F)n1` (centres unmarked) [Example B094, N-(4-(2-(4-chlorophenyl)but-3-yn-2-yl)thiazol-2-yl)-2-fluoro-4-(piperazin-1-yl)benzamide] are within 1.5-fold of each other in IC50: 0.169 µM for the first, 0.151 µM for the second.

Going from `COCC(C)(c1ccccc1)c1csc(NC(=O)c2c(F)cc(N3CCNCC3)cc2F)n1` (centres unmarked) [Example C004, 2,6-difluoro-N-(4-(1-methoxy-2-phenylpropan-2-yl)thiazol-2-yl)-4-(piperazin-1-yl)benzamide] to `CCOCC(C)(c1ccccc1)c1csc(NC(=O)c2c(F)cc(N3CCNCC3)cc2F)n1` (centres unmarked) [Example C031, N-(4-(1-ethoxy-2-phenylpropan-2-yl)thiazol-2-yl)-2,6-difluoro-4-(piperazin-1-yl)benzamide], the IC50 rises from 0.022 µM to 0.642 µM (29-fold). The first is the more potent here.

Compared with `C#CC(C)(c1ccc(OC(F)F)cc1)c1csc(NC(=O)c2c(F)cc(N3CCNCC3)cc2F)n1` (centres unmarked) [Example C033, N-(4-(2-(4-(difluoromethoxy)phenyl)but-3-yn-2-yl)thiazol-2-yl)-2,6-difluoro-4-(piperazin-1-yl)benzamide], `CC(c1ccc(Cl)cc1)c1csc(NC(=O)c2c(F)cc(N3CCNCC3)cc2F)n1` (centres unmarked) [Example C003, N-(4-(1-(4-chlorophenyl)ethyl)thiazol-2-yl)-2,6-difluoro-4-(piperazin-1-yl)benzamide] is 6.6-fold lower in IC50: 0.073 µM for the first, 0.011 µM for the second.

Compared with `COc1ccc(C(C)(C)c2csc(NC(=O)c3cnc(N4CCNCC4)nc3)n2)cc1` [Example B015, N-(4-(2-(4-methoxyphenyl)propan-2-yl)thiazol-2-yl)-2-(piperazin-1-yl)pyrimidine-5-carboxamide], `COc1ccc(C(C)(C)c2csc(NC(=O)c3ccc(OCCCN4CCNCC4)cc3)n2)cc1` [Example B022, N-(4-(2-(4-methoxyphenyl)propan-2-yl)thiazol-2-yl)-4-(3-(piperazin-1-yl)propoxy)benzamide] is 1.8-fold higher in IC50: 0.161 µM for the first, 0.294 µM for the second.

Compared with `C#CC(C)(c1ccc(Br)cc1)c1csc(NC(=O)[C@H]2C[C@@H](CO)C2)n1` (mixture of isomers) [Example D006, rac-(1s,3s)-N-(4-(2-(4-bromophenyl)but-3-yn-2-yl)thiazol-2-yl)-3-(hydroxymethyl)cyclobutanecarboxamide], `C#CC(C)(c1ccc(OC)cc1)c1csc(NC(C)=O)n1` (centres unmarked) [Example D002, N-(4-(2-(4-methoxyphenyl)but-3-yn-2-yl)thiazol-2-yl)acetamide] is 4.9-fold higher in IC50: 0.04 µM for the first, 0.196 µM for the second.

Compared with `COc1ccc(C(C)(C)c2csc(NC(=O)c3ccc(N4CCC(N(C)C)C4)nc3)n2)cc1` (centres unmarked) [Example B010, 6-(3-(dimethylamino)pyrrolidin-1-yl)-N-(4-(2-(4-methoxyphenyl)propan-2-yl)thiazol-2-yl)nicotinamide], `COc1ccc(C(C)(C)c2csc(NC(=O)c3ccc(N4CCN(CCO)CC4)nc3)n2)cc1` [Example B053, 6-(4-(2-hydroxyethyl)piperazin-1-yl)-N-(4-(2-(4-methoxyphenyl)propan-2-yl)thiazol-2-yl)nicotinamide] is 1.8-fold lower in IC50: 0.187 µM for the first, 0.104 µM for the second.

Going from `COc1ccc(C(C)(C)c2csc(NC(=O)c3ccc(C(=O)NC4CCN(C)CC4)cc3)n2)cc1` [Example B030, N1-(4-(2-(4-methoxyphenyl)propan-2-yl)thiazol-2-yl)-N4-(1-methylpiperidin-4-yl)terephthalamide] to `Cc1ccc(C(C)(C)c2csc(NC(=O)c3ccc(CN4CCN(C)CC4)cc3)n2)cc1` [Example B046, 4-((4-methylpiperazin-1-yl)methyl)-N-(4-(2-(p-tolyl)propan-2-yl)thiazol-2-yl)benzamide], the IC50 falls from 0.155 µM to 0.028 µM (5.5-fold). The second is the more potent here.

`COc1ccc(C(C)(C)c2csc(NC(=O)c3ccc(CN4CCN(CCO)CC4)nc3)n2)cc1` [Example B052, 6-((4-(2-hydroxyethyl)piperazin-1-yl)methyl)-N-(4-(2-(4-methoxyphenyl)propan-2-yl)thiazol-2-yl)nicotinamide] and `CC(=O)Nc1nc(C(C)(C)c2ccc(Br)cc2)cs1` [Example D001, N-(4-(2-(4-bromophenyl)propan-2-yl)thiazol-2-yl)acetamide] are within 1.5-fold of each other in IC50: 0.111 µM for the first, 0.1 µM for the second.

With `C#CC(C)(c1ccc(F)cc1)c1csc(NC(=O)c2c(F)cc(-c3cnn(C)c3N)cc2F)n1` (centres unmarked) [Example B102, 4-(5-amino-1-methyl-1H-pyrazol-4-yl)-2,6-difluoro-N-(4-(2-(4-fluorophenyl)but-3-yn-2-yl)thiazol-2-yl)benzamide] the IC50 was 1.27 µM.
